Data as given in US20130035329A1, “THERAPEUTICALLY ACTIVE COMPOSITIONS AND THEIR METHODS OF USE” (priority 2009, published 2013).

Target: IDH1 R132H (Homo sapiens, UniProt O75874, R132H)
Assay: High Throughput Screening (HTS) for IDH1 R132H inhibitors (resazurin/NADPH fluorescence assay)
Format: biochemical
Conditions: IDH1m
Experimental: A compound described herein may be an inhibitor of IDH1m. […] B refers to an inhibitor of IDH1m with an IC50 between 1 μM and 50 μM. C refers to an inhibitor of IDH1m with an IC50 greater than 50 μM. D refers to a compound wherein an IC50 is not available.
Assays were conducted in a volume of 76 μl assay buffer (150 mM NaCl, 10 mM MgCl2, 20 mM Tris pH 7.5, 0.03% bovine serum albumin) as follows in a standard 384-well plate: To 25 ul of substrate mix (8 uM NADPH, 2 mM aKG), 1 μl of test compound was added in DMSO. The plate was centrifuged briefly, and then 25 μl of enzyme mix was added (0.2 μg/ml ICDH1 R132H) followed by a brief centrifugation and shake at 100 RPM. The reaction was incubated for 50 minutes at room temperature, then 25 μl of detection mix (30 μM resazurin, […]) was added and the mixture further incubated for 5 minutes at room temperature. The conversion of resazurin to resorufine was detected by fluorescent spectroscopy at Ex544 Em590 c/o 590.

[1] = assay similar to Example 1, class symbols

IDH1 R132H, sequence (O75874 whole entry R132H): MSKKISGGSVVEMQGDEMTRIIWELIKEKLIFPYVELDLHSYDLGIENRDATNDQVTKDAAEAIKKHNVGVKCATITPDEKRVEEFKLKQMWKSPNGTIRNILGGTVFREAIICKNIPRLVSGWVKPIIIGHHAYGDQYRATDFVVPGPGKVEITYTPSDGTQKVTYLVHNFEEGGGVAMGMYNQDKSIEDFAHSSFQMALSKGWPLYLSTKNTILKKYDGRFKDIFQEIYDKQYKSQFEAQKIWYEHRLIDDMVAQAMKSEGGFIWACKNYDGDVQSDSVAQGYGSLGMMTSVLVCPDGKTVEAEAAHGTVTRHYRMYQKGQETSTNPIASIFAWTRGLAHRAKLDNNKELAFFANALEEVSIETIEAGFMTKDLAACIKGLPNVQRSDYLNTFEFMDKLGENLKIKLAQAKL

SMILES	IC50 [1] [µM]	IC50 (number printed in Table 1 instead of a class symbol) [µM]
COCOc1ccc(NS(=O)(=O)c2ccc(C)c(C(=O)N3CCN(c4ccccc4C)CC3)c2)cc1	1 to 50	
CCCCc1ccc(NS(=O)(=O)c2ccc(C)c(C(=O)N3CCN(c4cccnc4OC)CC3)c2)cc1	1 to 50	
CCCCc1ccc(NS(=O)(=O)c2cccc(C(=O)N3CCN(c4ccccc4OC)CC3)c2)c(C(=O)O)c1	1 to 50	
CCCc1ccc(NS(=O)(=O)c2cccc(C(=O)N3CCN(c4ccccc4)CC3)c2)cc1	1 to 50	
CCCCc1ccc(NS(=O)(=O)c2cc3c(c(C(=O)N4CCN(c5ccccc5OC)CC4)c2)OCCN3)cc1	1 to 50	
CCCCc1ccc(NS(=O)(=O)c2ccc(C)c(C(=O)N3CCN(C(=O)C4CC4)CC3)c2)cc1	1 to 50	
CCCCc1ccc(NS(=O)(=O)c2ccc(C)c(C(=O)N3CCN(C(=O)OCc4ccccc4)CC3)c2)cc1	1 to 50	
CCOc1ccc(NS(=O)(=O)c2cccc(C(=O)N3CCCN(c4ccccc4OC)CC3)c2)cc1	> 50	
COc1ccccc1N1CCN(C(=O)c2cc(S(=O)(=O)Nc3ccc(CCN4CCCC4)cc3)ccc2C)CC1	> 50	
CCCCc1ccc(NS(=O)(=O)c2ccc(C)c(C(=O)N3CCN(c4ccccc4C)CC3)c2)cc1	< 1	
COc1ccccc1N1CCN(C(=O)c2cccc(S(=O)(=O)Nc3ccc(C(C)(C)C)cc3)c2)CC1	1 to 50	
CCCCc1ccc(NS(=O)(=O)c2ccc(C)c(C(=O)N3CCN(c4ccccc4-c4ccccc4)CC3)c2)cc1	1 to 50	
CCCCc1ccc(NS(=O)(=O)c2ccc(C)c(C(=O)N3CCN(c4ccccc4OCCc4ccccc4)CC3)c2)cc1	1 to 50	
CCCCc1ccc(NS(=O)(=O)c2cccc(C(=O)N3CCN(c4ncc(C)cc4Cl)CC3)c2)cc1	1 to 50	
COCCOCOc1ccc(NS(=O)(=O)c2ccc(C)c(C(=O)N3CCN(c4ccccc4OC)CC3)c2)cc1	1 to 50	
COc1ccc(NS(=O)(=O)c2ccc(C)c(C(=O)N3CCN(c4ccccc4)CC3)c2)cc1		51
COc1ccccc1N1CCN(C(=O)c2cc(S(=O)(=O)Nc3ccc(C)cc3)ccc2C)CC1	1 to 50	
COc1ccccc1N1CCN(C(=O)c2cccc(NS(=O)(=O)c3cccc4cccnc34)c2)CC1	> 50	
CCCCc1ccc(NS(=O)(=O)c2cccc(C(=O)N3CCN(c4ccccn4)CC3)c2)cc1	1 to 50	
CCCCc1ccc(NS(=O)(=O)c2ccc(C)c(C(=O)N3CCN(c4c(Cl)cccc4Cl)CC3)c2)cc1	1 to 50	
CCCc1ccc(NS(=O)(=O)c2ccc(C)c(C(=O)N3CCN(c4ccccc4OC)CC3)c2)cc1	1 to 50	
CCCCc1ccc(NS(=O)(=O)c2ccc(C)c(C(=O)N3CCN(c4ccccc4C(F)(F)F)CC3)c2)cc1	1 to 50	
CCCOc1ccc(NS(=O)(=O)c2ccc(C)c(C(=O)N3CCN(c4ccccc4OC)CC3)c2)cc1	1 to 50	
Cc1ccc(NS(=O)(=O)c2cccc(C(=O)N3CCN(c4ccccc4)CC3)c2)cc1	> 50	

SMILES	IC50 [1] [µM]	IC50 (number printed in Table 1 instead of a class symbol) [µM]
CCOc1ccc(NS(=O)(=O)c2ccc(C)c(C(=O)N3CCN(c4ccccc4OC)CC3)c2)cc1	1 to 50	
O=C(c1cccc(S(=O)(=O)Nc2ccccc2F)c1)N1CCN(c2ccccc2)CC1	> 50	
CCOC(=O)COc1ccc(NS(=O)(=O)c2ccc(C)c(C(=O)N3CCN(c4ccccc4OC)CC3)c2)cc1	1 to 50	
COc1ccccc1N1CCN(C(=O)c2cc(S(=O)(=O)Nc3ccccc3F)ccc2C)CC1	> 50	
Cc1cc(F)ccc1NS(=O)(=O)c1cccc(C(=O)N2CCN(c3ccccn3)CC2)c1	> 50	
COc1ccccc1N1CCCN(C(=O)c2cccc(S(=O)(=O)Nc3ccc(Cl)cc3)c2)CC1	> 50	
CCCCOc1ccc(NS(=O)(=O)c2ccc(C)c(C(=O)N3CCN(c4ccccc4OC)CC3)c2)c(C)c1C	1 to 50	
O=C(c1cccc(S(=O)(=O)Nc2ccc(Cl)cc2)c1)N1CCN(c2ccccc2)CC1	> 50	
CCCCc1ccc(NS(=O)(=O)c2cccc(C(=O)N3CCN(c4ccncc4)CC3)c2)cc1	1 to 50	
CCCCc1ccc(NS(=O)(=O)c2ccc(C)c(C(=O)N3CCN(Cc4cc(C)c(C)cc4C)CC3)c2)cc1	1 to 50	
COc1ccccc1N1CCN(C(=O)c2cc(S(=O)(=O)Nc3ccc(OCc4nnco4)cc3)ccc2C)CC1	1 to 50	
Cc1ccc(S(=O)(=O)Nc2ccc(Cl)cc2)cc1C(=O)N1CCN(c2ccccc2)CC1	> 50	
CCCCc1ccc(NS(=O)(=O)c2cccc(C(=O)N3CCN(c4ccnc5[nH]ccc45)CC3)c2)cc1	1 to 50	
C=Cc1ccc(S(=O)(=O)Nc2ccc(CCCC)cc2)cc1C(=O)N1CCN(c2ccccc2OC)CC1	1 to 50	
CCCCc1ccc(NS(=O)(=O)c2ccc(C)c(C(=O)N3CCN(c4ccc(Cl)cc4)CC3)c2)cc1	1 to 50	
COc1ccc(NS(=O)(=O)c2cccc(C(=O)N3CCN(c4ccccc4)CC3)c2)cc1	> 50	
COc1ccccc1N1CCN(C(=O)c2cccc(S(=O)(=O)Nc3ccccc3)c2)CC1	> 50	
CCCCc1ccc(NS(=O)(=O)c2ccc(Cl)c(C(=O)N3CCN(C(C)=O)CC3)c2)cc1	> 50	
COc1ccccc1NS(=O)(=O)c1cccc(C(=O)N2CCCN(c3ccccc3OC)CC2)c1	> 50	
C#CCc1ccc(S(=O)(=O)Nc2ccc(CCCC)cc2)cc1C(=O)N1CCN(c2ccccc2OC)CC1	1 to 50	
COC(=O)C(C)Nc1ccc(NS(=O)(=O)c2ccc(C)c(C(=O)N3CCN(c4ccccc4OC)CC3)c2)cc1 (stereo not drawn)	1 to 50	
CCCCc1ccc(NS(=O)(=O)c2ccc(C)c(C(=O)N3CCCN(c4ccccc4C)CC3)c2)cc1	1 to 50	
COc1ccccc1N1CCN(C(=O)c2cc(S(=O)(=O)Nc3ccc(CCc4ccccc4)cc3)ccc2C)CC1	1 to 50	
CCCCc1ccc(NS(=O)(=O)c2ccc(C)c(C(=O)N3CCN(CCCc4ccccc4)CC3)c2)cc1	1 to 50	

SMILES	IC50 [1] [µM]	IC50 (number printed in Table 1 instead of a class symbol) [µM]
CCCCc1ccc(NS(=O)(=O)c2ccc(C)c(C(=O)N3CCN(C(C)c4ccccc4)CC3)c2)cc1 (stereo not drawn)	1 to 50	
COc1ccccc1N1CCN(C(=O)c2cc(S(=O)(=O)Nc3ccc(OC(C)C)cc3)ccc2C)CC1	1 to 50	
Cc1ccc(S(=O)(=O)Nc2ccc(C(C)C)cc2)cc1C(=O)N1CCN(c2ccccc2)CC1	1 to 50	
COc1ccccc1N1CCCN(C(=O)c2cccc(S(=O)(=O)Nc3ccc(C(C)C)cc3)c2)CC1	1 to 50	
CCCCc1ccc(NS(=O)(=O)c2ccc(C)c(C(=O)N3CCN(c4ccccn4)CC3)c2)cc1	1 to 50	
COc1ccc(NS(=O)(=O)c2ccc(C)c(C(=O)N3CCN(c4ccccc4OC)CC3)c2)cc1	1 to 50	
CCCCc1ccc(NS(=O)(=O)c2ccc(C)c(C(=O)N3CCN(c4ccccc4F)CC3)c2)cc1	1 to 50	
CCCCc1ccc(NS(=O)(=O)c2ccc(C)c(C(=O)N3CCN(Cc4cccc(C)c4)CC3)c2)cc1	1 to 50	
CCCCc1ccc(NS(=O)(=O)c2ccc(C)c(C(=O)N3CCN(Cc4ccccc4CC)CC3)c2)cc1	1 to 50	
COc1ccccc1N1CCN(C(=O)c2cc(S(=O)(=O)Nc3ccc4[nH]ccc4c3)ccc2C)CC1	1 to 50	
CCCCc1ccc(NS(=O)(=O)c2ccc(N3CCOCC3)c(C(=O)N3CCN(c4ccccc4OC)CC3)c2)cc1	1 to 50	
CCCCc1ccc(NS(=O)(=O)c2ccc(C)c(C(=O)N3CCN(C(=O)OCC)CC3)c2)cc1	1 to 50	
CCCCc1ccc(NS(=O)(=O)c2ccc(C)c(C(=O)N3CCN(C(=O)OCC(C)C)CC3)c2)cc1	1 to 50	
CCCCc1ccc(NS(=O)(=O)c2ccc(C)c(C(=O)N3CCN(c4ccc(F)c(OC)c4)CC3)c2)cc1	1 to 50	
CCCCc1ccc(NS(=O)(=O)c2ccc(C)c(C(=O)N3CCN(c4ccccc4OC(C)C)CC3)c2)cc1	1 to 50	
CCCCc1ccc(NS(=O)(=O)c2cc3c(c(C(=O)N4CCN(c5ccccc5OC)CC4)c2)OCCO3)cc1	1 to 50	
CCCCc1ccc(NS(=O)(=O)c2ccc(C)c(C(=O)N3CCN(c4ccccc4OCc4ccccc4)CC3)c2)cc1	1 to 50	
COc1ccc(NS(=O)(=O)c2cccc(C(=O)N3CCCN(c4ccccc4OC)CC3)c2)cc1	> 50	
CCCCc1ccc(NS(=O)(=O)c2ccc(C)c(C(=O)N3CCN(c4cccc(C(F)(F)F)c4)CC3)c2)cc1	1 to 50	
COc1ccccc1NS(=O)(=O)c1cccc(C(=O)N2CCN(c3ccccc3)CC2)c1	> 50	
CCCCc1ccc(NS(=O)(=O)c2ccc(C)c(C(=O)N3CCN(c4ccc(OC)c(F)c4)CC3)c2)cc1	1 to 50	
CCCCc1ccc(NS(=O)(=O)c2ccc(Br)c(C(=O)N3CCN(c4ccccc4OC)CC3)c2)cc1	1 to 50	
COc1ccccc1N1CCCN(C(=O)c2cccc(S(=O)(=O)Nc3ccccc3F)c2)CC1	1 to 50	
CCCCc1ccc(NS(=O)(=O)c2ccc(C)c(C(=O)N3CCN(c4ccccc4OC)CC3)c2)cc1	< 1	
